Laboratory results from ChEMBL document CHEMBL3045491, “Antituberculosis activity of hydrazones derived from 4-fluorobenzoic acid hydrazide” (2009).

Test system: Mycobacterium tuberculosis
Experiment: Antitubercular activity against Mycobacterium tuberculosis H37Rv ATCC 27294 at 6.25 ug/ml by microplate alamar blue assay
Format: functional

| SMILES | inhibition at 6.25 µg/mL [%] |
| --- | --- |
| CC/C(=N\NC(=O)c1ccc(F)cc1)c1ccccc1 | 53 |
| O=C(N/N=C/c1c(Cl)cccc1Cl)c1ccc(F)cc1 | 85 |
| O=C(N/N=C/c1cccc(F)c1)c1ccc(F)cc1 | 52 |
| CN(C)CCCOc1ccc(/C=N/NC(=O)c2ccc(F)cc2)cc1 | 58 |
| C/C(=N\NC(=O)c1ccc(F)cc1)c1ccc[nH]1 | 66 |
| O=C(N/N=C/c1ccc(Cl)cc1Cl)c1ccc(F)cc1 | 62 |
| O=C(N/N=C/c1cc(Cl)cc(Cl)c1)c1ccc(F)cc1 | 65 |
| C=C/C(C)=N/NC(=O)c1ccc(F)cc1 | 56 |
| C/C(=N\NC(=O)c1ccc(F)cc1)c1ccncc1 | 53 |
| C/C(=N\NC(=O)c1ccc(F)cc1)c1ccc(Cl)s1 | 64 |
| O=C(N/N=C/c1cc(Cl)cc(Cl)c1O)c1ccc(F)cc1 | 69 |
| C/C(=N\NC(=O)c1ccc(F)cc1)c1ccco1 | 53 |
| C/C(=N\NC(=O)c1ccc(F)cc1)c1cccs1 | 50 |
| C/C(=N\NC(=O)c1ccc(F)cc1)c1ccc(Br)s1 | 59 |
| O=C(N/N=C/c1cccc(Oc2ccccc2)c1)c1ccc(F)cc1 | 84 |
| C/C(=N\NC(=O)c1ccc(F)cc1)c1ccccc1 | 59 |
